# The source made the active and inactive calls.
# Experiments:
# [1] = NIH-3T3 fibroblast cytotoxicity, dose response, cytotoxicity control, cell-based, fluorescence, Alamar Blue, secondary assay (AID 2327); type: functional;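 further: NIH-3T3 mouse fibroblasts cultured with fluconazole at 8 µg/mL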
# Cytochrome P450 2D6 = Cytochrome P450 2D6 (Homo sapiens, UniProt P10635);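 further: CYP2D6 member of a cytochrome P450 panel assay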
# Cytochrome P450 2C9 = Cytochrome P450 2C9 (Homo sapiens, UniProt P11712)
# Chain of Cytochrome P450 2C9 (P11712 whole entry): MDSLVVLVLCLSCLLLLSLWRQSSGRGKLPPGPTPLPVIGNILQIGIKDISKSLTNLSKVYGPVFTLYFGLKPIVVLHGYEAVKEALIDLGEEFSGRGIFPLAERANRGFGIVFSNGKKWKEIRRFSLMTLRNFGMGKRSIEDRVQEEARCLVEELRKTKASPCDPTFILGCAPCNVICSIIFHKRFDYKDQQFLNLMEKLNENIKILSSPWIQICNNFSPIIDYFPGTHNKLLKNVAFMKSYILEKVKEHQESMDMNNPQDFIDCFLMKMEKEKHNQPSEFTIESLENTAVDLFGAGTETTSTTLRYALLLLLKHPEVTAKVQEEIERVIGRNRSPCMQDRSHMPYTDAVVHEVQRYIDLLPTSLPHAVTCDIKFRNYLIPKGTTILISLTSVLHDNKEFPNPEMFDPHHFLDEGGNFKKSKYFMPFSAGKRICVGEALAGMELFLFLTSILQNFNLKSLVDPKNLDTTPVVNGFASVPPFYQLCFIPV
# [2] = target: FAD-linked sulfhydryl oxidase ALR (Homo sapiens, UniProt P55789); assay: inhibitors of human ALR sulfhydryl oxidase, dose response, biochemical, H2O2 detection, luminescence, cherry-pick (AID 493248)
# Chain of FAD-linked sulfhydryl oxidase ALR (P55789 whole entry): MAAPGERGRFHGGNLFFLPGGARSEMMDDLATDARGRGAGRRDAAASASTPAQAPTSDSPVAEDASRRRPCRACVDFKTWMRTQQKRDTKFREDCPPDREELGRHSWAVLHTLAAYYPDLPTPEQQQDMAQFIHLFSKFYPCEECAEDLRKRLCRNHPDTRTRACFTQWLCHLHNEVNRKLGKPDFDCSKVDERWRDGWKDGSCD
# Cytochrome P450 1A2 = target: T1, Cytochrome P450 1A2 (Homo sapiens, UniProt P05177);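 further: PubChem cytochrome P450 panel assay, CYP1A2 panel member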
# T1 sequence (P05177 whole entry): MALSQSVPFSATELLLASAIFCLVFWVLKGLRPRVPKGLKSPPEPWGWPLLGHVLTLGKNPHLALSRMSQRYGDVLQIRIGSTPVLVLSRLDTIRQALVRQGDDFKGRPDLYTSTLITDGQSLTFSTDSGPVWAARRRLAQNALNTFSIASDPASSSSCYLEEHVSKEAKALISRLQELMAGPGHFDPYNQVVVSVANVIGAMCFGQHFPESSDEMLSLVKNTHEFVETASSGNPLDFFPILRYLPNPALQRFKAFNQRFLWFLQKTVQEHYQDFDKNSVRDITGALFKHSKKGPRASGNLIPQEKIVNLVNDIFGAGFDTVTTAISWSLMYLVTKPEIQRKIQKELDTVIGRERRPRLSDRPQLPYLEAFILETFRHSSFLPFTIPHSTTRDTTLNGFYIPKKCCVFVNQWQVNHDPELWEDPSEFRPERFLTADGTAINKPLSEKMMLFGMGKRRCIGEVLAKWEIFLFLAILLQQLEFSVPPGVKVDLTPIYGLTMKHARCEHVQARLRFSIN
# Cytochrome P450 3A4 = Cytochrome P450 3A4 (Homo sapiens, UniProt P08684);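 further: CYP3A4 tested as one member of a cytochrome P450 panel screen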
# Chain of Cytochrome P450 3A4 (P08684 whole entry): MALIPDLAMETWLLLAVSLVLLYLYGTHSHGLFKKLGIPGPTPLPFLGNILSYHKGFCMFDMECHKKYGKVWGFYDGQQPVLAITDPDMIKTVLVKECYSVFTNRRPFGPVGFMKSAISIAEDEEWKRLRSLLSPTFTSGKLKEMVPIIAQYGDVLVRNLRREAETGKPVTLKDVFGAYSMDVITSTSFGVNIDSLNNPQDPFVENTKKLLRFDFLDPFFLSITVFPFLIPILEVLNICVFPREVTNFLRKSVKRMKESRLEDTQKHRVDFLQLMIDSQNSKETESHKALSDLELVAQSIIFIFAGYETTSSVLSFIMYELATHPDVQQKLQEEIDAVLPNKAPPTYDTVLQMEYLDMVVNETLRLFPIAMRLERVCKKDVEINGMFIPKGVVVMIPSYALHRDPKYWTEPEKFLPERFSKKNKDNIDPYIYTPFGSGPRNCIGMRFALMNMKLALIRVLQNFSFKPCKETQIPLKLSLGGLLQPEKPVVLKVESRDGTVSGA
# Cytochrome P450 2C19 = Cytochrome P450 2C19 (Homo sapiens, UniProt P33261); assay: Cytochrome panel assay with activity outcomes. Panel member name: p450-cyp2c19 Compounds with AC50 equal or less than 10 uM are considered active; type: functional; details: read-out: AC50
# Chain of Cytochrome P450 2C19 (P33261 whole entry): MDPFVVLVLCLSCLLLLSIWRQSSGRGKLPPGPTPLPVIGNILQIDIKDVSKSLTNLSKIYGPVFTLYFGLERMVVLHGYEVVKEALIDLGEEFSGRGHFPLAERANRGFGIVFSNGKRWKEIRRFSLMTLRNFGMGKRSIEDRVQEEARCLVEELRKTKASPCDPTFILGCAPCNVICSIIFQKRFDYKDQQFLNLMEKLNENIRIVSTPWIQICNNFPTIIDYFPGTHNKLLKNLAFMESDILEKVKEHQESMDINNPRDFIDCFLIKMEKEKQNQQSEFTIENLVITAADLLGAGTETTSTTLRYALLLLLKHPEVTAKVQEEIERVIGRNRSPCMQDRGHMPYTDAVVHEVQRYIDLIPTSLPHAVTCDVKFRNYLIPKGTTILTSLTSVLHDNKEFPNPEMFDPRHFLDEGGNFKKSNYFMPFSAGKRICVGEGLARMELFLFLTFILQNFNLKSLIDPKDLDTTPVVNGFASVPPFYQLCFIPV
# [3] = Shn3 3'UTR reporter inhibitors, dose response, cell-based, Clone20 osteoblasts, firefly luciferase, cherry-picked (AID 624132); type: functional;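 further: firefly luciferase luminescence from reporter carrying the Shn3 3'UTR in osteoblasts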
# [4] = HepG2 cell cytotoxicity, dose response, cytotoxicity control for Shn3 inhibitor project, CellTiter-Glo, cherry-picked (AID 624134); type: functional, cell-based
# [5] = control 3'UTR Renilla luciferase suppression, dose response, counter-screen for Shn3 inhibitor project, cell-based, Clone20-Shn3RL, cherry-picked (AID 624133); type: functional
# [6] = target: T2, Heat shock factor protein 1 (Mus musculus, UniProt P38532); assay: inhibition of MG132-induced HSE-luciferase signal, confirmation, cell-based, NIH3T3, luminescence, dose retest (AID 2382); type: functional;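 further: NIH3T3 fibroblasts with HSF1-driven luciferase reporter stressed by proteasome inhibitor MG132; luminescence from HSF1-driven luciferase expression after 8 hours of MG132 stress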
# T2 sequence (P38532 whole entry): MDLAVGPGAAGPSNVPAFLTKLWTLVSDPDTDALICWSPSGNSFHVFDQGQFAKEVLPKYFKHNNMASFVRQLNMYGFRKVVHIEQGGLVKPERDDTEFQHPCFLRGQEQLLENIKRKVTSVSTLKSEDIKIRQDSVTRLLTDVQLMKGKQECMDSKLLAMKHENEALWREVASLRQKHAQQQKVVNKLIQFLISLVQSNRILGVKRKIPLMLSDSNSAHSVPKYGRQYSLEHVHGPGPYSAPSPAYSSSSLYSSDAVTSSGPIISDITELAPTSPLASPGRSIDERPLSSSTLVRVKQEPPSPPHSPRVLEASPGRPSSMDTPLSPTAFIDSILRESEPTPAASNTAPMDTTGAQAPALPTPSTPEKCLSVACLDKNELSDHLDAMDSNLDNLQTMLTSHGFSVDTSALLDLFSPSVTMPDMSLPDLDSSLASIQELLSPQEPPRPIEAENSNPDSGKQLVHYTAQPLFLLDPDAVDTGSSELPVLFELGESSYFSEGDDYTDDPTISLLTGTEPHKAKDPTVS
# [7] = Luminescence Cell-Based Dose Response HTS to Identify Activators of Luciferase Translation or Activity in H4 […] Cells. [Related pubchem assays: 1829 (Project Summary), 1814 (Primary HTS)]; type: functional
# H4 = assay: Luminescence Cell-Based Dose Response HTS to Identify Activators of 5'UTR Stem-Loop Driven Prion Protein mRNA Translation in H4 Neuroglioblastoma Cells. [Related pubchem assays: 1829 (Project Summary), 1814 (Primary HTS)]; type: functional; details: Homo sapiens
# [8] = test system: Streptococcus sp. 'group A'; assay: growth inhibition of control SK(-) GAS strain, dose response, counter-screen for streptokinase expression inhibitor project, luminescence, kanamycin, BacTiterGlo, confirmation (AID 1900); type: functional, organism-based
# Streptokinase A = target: T3, Streptokinase A (Streptococcus pyogenes serotype M1, UniProt P10520); assay: S. pyogenes streptokinase expression inhibitors, potency, dose response, plasminogen activation absorbance, OD405 (AID 1914); type: functional, Streptococcus pyogenes M1 GAS;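 further: secreted streptokinase activity via plasminogen activation per viability signal from cell pellet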
# T3 sequence (P10520 whole entry): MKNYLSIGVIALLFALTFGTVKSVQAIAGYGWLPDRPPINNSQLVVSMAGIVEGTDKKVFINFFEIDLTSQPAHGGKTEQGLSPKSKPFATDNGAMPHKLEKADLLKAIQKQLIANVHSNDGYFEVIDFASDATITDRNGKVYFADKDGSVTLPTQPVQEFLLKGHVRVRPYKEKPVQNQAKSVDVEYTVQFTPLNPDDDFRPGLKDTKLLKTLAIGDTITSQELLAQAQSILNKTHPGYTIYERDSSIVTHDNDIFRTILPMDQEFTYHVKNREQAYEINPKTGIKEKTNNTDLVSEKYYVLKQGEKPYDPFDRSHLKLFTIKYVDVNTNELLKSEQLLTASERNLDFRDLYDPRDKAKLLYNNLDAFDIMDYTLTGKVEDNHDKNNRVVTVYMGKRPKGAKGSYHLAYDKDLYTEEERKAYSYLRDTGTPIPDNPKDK
# Streptococcus = assay: Group A Streptococcus viability loss, dose response, counter-screen for streptokinase expression inhibitor project, luminescence, BacTiterGlo (AID 1915); type: functional, organism-based;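 further: potency for reduction of bacterial viability or growth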
# Paired box protein Pax-8 = Paired box protein Pax-8 (Homo sapiens, UniProt Q06710); assay: inhibitors of PAX8-driven TPO luciferase reporter, dose response, RMG-I cells, cherry-pick (AID 687027); type: functional, cell-based;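 further: luciferase reporter driven by Pax8 target thyroperoxidase promoter measured by SteadyGlo luminescence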
# Chain of Paired box protein Pax-8 (Q06710 whole entry): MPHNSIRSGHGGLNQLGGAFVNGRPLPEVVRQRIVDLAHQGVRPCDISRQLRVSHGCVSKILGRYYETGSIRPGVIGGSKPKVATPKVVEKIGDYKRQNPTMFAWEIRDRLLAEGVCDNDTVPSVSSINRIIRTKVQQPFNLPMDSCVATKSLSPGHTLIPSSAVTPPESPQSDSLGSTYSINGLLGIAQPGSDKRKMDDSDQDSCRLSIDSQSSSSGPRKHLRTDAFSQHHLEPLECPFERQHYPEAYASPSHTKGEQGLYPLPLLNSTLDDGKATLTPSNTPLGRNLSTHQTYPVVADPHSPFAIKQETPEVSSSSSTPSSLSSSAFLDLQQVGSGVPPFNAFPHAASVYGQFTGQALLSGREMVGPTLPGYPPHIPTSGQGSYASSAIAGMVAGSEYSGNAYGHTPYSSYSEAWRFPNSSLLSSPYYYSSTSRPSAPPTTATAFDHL
# Chain of Cytochrome P450 2D6 (P10635 whole entry): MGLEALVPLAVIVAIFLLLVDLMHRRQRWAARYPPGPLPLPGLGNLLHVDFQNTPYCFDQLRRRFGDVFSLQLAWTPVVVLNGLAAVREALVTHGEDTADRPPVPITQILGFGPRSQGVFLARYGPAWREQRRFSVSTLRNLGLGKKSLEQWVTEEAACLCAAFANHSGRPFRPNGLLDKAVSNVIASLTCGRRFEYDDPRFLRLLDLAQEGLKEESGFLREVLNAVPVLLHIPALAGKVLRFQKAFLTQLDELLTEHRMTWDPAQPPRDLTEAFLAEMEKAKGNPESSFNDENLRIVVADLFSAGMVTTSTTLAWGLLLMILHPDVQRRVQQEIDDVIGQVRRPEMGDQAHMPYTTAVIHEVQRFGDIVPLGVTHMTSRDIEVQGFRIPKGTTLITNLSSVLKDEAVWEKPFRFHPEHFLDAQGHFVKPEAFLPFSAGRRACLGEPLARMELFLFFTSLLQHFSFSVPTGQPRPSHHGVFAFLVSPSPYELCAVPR
smiles,measurement,setting,value
COc1ccc(-c2cc(-c3cc(F)ccc3O)[nH]n2)cc1OC,EC50,[1],> 150 µM (inactive)
same,AC50,Cytochrome P450 2D6,28.2 µM (inconclusive)
same,AC50,Cytochrome P450 2C9,39.8 µM (inconclusive)
Cc1cc(NC(=O)Nc2ccc(N(C)C)cc2)c2cc(F)cc(F)c2n1,AC50,Cytochrome P450 2D6,31.6 µM (inconclusive)
O=[N+]([O-])c1ccc(-c2cn(-c3ccccc3F)c(=S)[nH]2)cc1,AC50,[2],> 100 µM (inactive)
CCc1cc2c(nc1CC)CCN(CC/C(C)=N/O[C@@H](C)c1cn([C@@H]3COC[C@@H]3O)nn1)C2,AC50,Cytochrome P450 2D6,2.51 µM (inconclusive)
O=C(OC1CCN(CCCl)CC1)C(c1ccccc1)c1ccccc1,AC50,Cytochrome P450 2D6,31.6 µM (inconclusive)
same,AC50,Cytochrome P450 1A2,12.6 µM (inconclusive)
same,AC50,Cytochrome P450 3A4,10 µM (inconclusive)
COc1ccc(OC)c2nc(O)c(CCNS(=O)(=O)c3ccc(Cl)cc3)cc12,AC50,Cytochrome P450 2C19,8.91 µM (inconclusive)
same,AC50,Cytochrome P450 2D6,31.6 µM (inconclusive)
same,AC50,Cytochrome P450 3A4,5.62 µM (inconclusive)
O=C(Nc1ccccc1)c1cc(-n2cnnc2)ccc1Cl,AC50,Cytochrome P450 1A2,12.6 µM (inconclusive)
same,AC50,Cytochrome P450 2C9,25.1 µM (inconclusive)
O=C(C1CC1)N1CCN=C1SCc1ccccc1Cl,AC50,[2],2.29 µM (active)
CC(C)c1ccc(NC(=O)C(c2ccccc2)N2CCN(C=O)CC2)cc1 (configuration not stated),AC50,Cytochrome P450 2C19,28.2 µM (inconclusive)
same,AC50,Cytochrome P450 2D6,14.1 µM (inconclusive)
same,AC50,Cytochrome P450 1A2,31.6 µM (inconclusive)
same,AC50,Cytochrome P450 3A4,11.2 µM (inconclusive)
same,AC50,Cytochrome P450 2C9,14.1 µM (inconclusive)
CCc1ccccc1N1C(=O)CC(N2CCc3ccccc32)C1=O (configuration not stated),AC50,[2],2.81 µM (active)
O=C(NCc1cccnc1)c1ccc(COc2ccccc2Cl)cc1,AC50,[2],0.055 µM (active)
NC(=O)CC(NC(=O)c1ccccc1)c1ccc(N2CCC(Cc3ccccc3)CC2)c([N+](=O)[O-])c1 (configuration not stated),AC50,[3],2.61 µM (active)
same,AC50,[4],2.74 µM (active)
same,AC50,[5],4.2 µM (active)
CC(C)CN1C(=O)c2ccc(C(=O)Nc3ccccc3C(=O)O)cc2C1=O,AC50,[2],> 100 µM (inactive)
COc1ccc(S(=O)(=O)N2CCN(CC(=O)Nc3cc(OC)cc(OC)c3)CC2)cc1,AC50,Cytochrome P450 2D6,20 µM (inconclusive)
CCN(CC)CCc1nc(-c2ccccc2)no1,AC50,Cytochrome P450 2D6,6.31 µM (inconclusive)
CCOC(=O)Cc1csc(NC(=S)NC(=O)c2ccc(F)cc2)n1,AC50,Cytochrome P450 1A2,1.12 µM (inconclusive)
same,AC50,Cytochrome P450 3A4,17.8 µM (inconclusive)
same,AC50,Cytochrome P450 2C9,1.26 µM (inconclusive)
CC(=O)Oc1ccc(OC(C)=O)c(SCCCCCCl)c1,EC50,[6],7.65 µM (active)
same,AC50,[3],2.58 µM (active)
same,AC50,[5],7.84 µM (active)
C[N+](C)(C)/N=C\c1ccc(O)c(O)c1,AC50,Cytochrome P450 2D6,2 µM (inconclusive)
same,AC50,Cytochrome P450 1A2,10 µM (inconclusive)
CCc1nn(C)c(-c2nnc(S)n2N)c1Cl,AC50,[2],0.673 µM (active)
same,AC50,Cytochrome P450 2C9,28.2 µM (inconclusive)
COc1cc(/C=C2/C(=O)NN(c3ccccc3)C2=O)cc(Br)c1O,AC50,[2],0.484 µM (active)
CCc1ccc(CNC(=O)c2cc3c(C)nc4ccccc4c3o2)cc1,AC50,[3],2.02 µM (active)
same,AC50,[4],> 70 µM (inactive)
same,AC50,[5],7.78 µM (active)
Cc1ccc(C(=O)NNc2ncnc3ccccc23)cc1,EC50,[7],6.62 µM (active)
same,EC50,H4,> 120 µM (not active)
Cc1nc2nc(C)c(CCC(=O)NCCCN3CCN(c4cccc(Cl)c4)CC3)c(C)n2n1,AC50,Cytochrome P450 2C19,25.1 µM (inconclusive)
same,AC50,Cytochrome P450 2D6,12.6 µM (inconclusive)
O=C(CSc1nnc(-c2ccc(Cl)cc2)o1)N1CCOCC1,EC50,[7],46.3 µM (active)
same,EC50,H4,11.8 µM (active)
N=C(N)SCc1nc(-c2ccc(Cl)cc2)no1,AC50,Cytochrome P450 2D6,3.16 µM (inconclusive)
same,AC50,Cytochrome P450 3A4,5.01 µM (inconclusive)
Cc1cc(NC(=O)c2ccc(S(=O)(=O)Nc3ccccc3)cc2)no1,AC50,Cytochrome P450 2D6,25.1 µM (inconclusive)
CCc1ccc(CCN2CCCCC2)nc1,AC50,Cytochrome P450 1A2,5.01 µM (inconclusive)
FC(F)(F)c1cccc(NC(S)=Nc2ccc(Cl)cc2Cl)c1,EC50,[8],4.48 µM (active)
same,EC50,Streptokinase A,> 150 µM (not active)
same,EC50,Streptococcus,46.8 µM (active)
same,AC50,Cytochrome P450 2D6,7.94 µM (inconclusive)
same,AC50,Cytochrome P450 3A4,28.2 µM (inconclusive)
same,AC50,Cytochrome P450 2C9,31.6 µM (inconclusive)
COc1ccc(-n2c(=O)c(-c3ccc(Cl)cc3)nc3cnc(N4CCNCC4)nc32)cc1,AC50,Cytochrome P450 1A2,12.6 µM (inconclusive)
Nc1n[nH]c(SCC(=O)Nc2ccccc2Sc2ccc(Cl)cc2)n1,AC50,Cytochrome P450 2D6,12.6 µM (inconclusive)
Nn1c(S)nnc1Cc1ccccc1,AC50,[2],0.134 µM (active)
OCCn1cnc2c(SCc3ccccc3)ncnc21,AC50,Cytochrome P450 1A2,3.16 µM (inconclusive)
N#CCC(=O)Nc1ccc(C(=O)NCc2cccc(Cl)c2)cc1,AC50,[2],9.8 µM (active)
O=C(NCc1ccco1)c1cc(C(=O)C2CC2)c[nH]1,AC50,Cytochrome P450 1A2,0.2 µM (inconclusive)
same,AC50,Cytochrome P450 2C9,39.8 µM (inconclusive)
COc1cccc(CC(C(=O)Nc2cc(C)ccc2C)c2nn[nH]n2)c1OC (configuration not stated),AC50,Cytochrome P450 2D6,15.8 µM (inconclusive)
same,AC50,Cytochrome P450 3A4,25.1 µM (inconclusive)
OCC1OC(n2cnc3c(O)nnnc32)C(O)C1O (configuration not stated),AC50,Paired box protein Pax-8,0.785 µM (active)
CCCN(C)C[C@H]1OCCCC[C@@H](C)Oc2ccc(NC(=O)c3ccccc3)cc2C(=O)N([C@H](C)CO)C[C@H]1C,AC50,Paired box protein Pax-8,69.5 µM (active)
Nc1cccc(/C=C/c2ccncc2)c1,AC50,[2],0.59 µM (active)
CC(C)=CCNc1ncnc2nc[nH]c12,AC50,Cytochrome P450 1A2,6.31 µM (inconclusive)
CCCCOc1cc(C(=O)NCCN(CC)CC)c2ccccc2n1 [DIBUCAINE],AC50,Cytochrome P450 2D6,7.94 µM (inconclusive)

# Reference: ChEMBL document CHEMBL1201862, “PubChem BioAssay data set” (2004)
